The results in this text go back to US8778919B2, “Cyclic anilino—pyridinotriazines” (Janssen Pharmaceutica NV, priority 2005, dated 2014).

The target of assay [1] is GSK-3α (Homo sapiens, UniProt P49840). Description: GSK-3 kinase assay (C1), GSK-3α. Format: biochemical. The settings on record: 1 μM ATP, read-out: C1 Score α. The essentials:
(§1)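 Radiometric SPA at room temperature in 25 mM Tris pH 7.4 with 10 mM MgCl2, 1 mM DTT, 5.7 ng/μl GSK-3β or 0.25 ng/μl GSK-3α, 5 μM biotinylated CREB peptide and 1 μM ATP plus ^33P-ATP. Stopped after 1 h; IC50 from dose-response versus no-compound control, reported as pIC50 score bands.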

Assay [2] concerns Chang cells. The assay can be described thus: GSK-3 cellular assay (C2): 14C-D-glucose incorporation into glycogen. The settings on record: increase in D-glucose incorporation into glycogen, test concentration of 10^−6 M. The assay is classed as cell-based. The procedure: Test compounds were tested for their ability to increase the incorporation of ^14C-D-glucose into glycogen in living cells. To do this, Chang cells (360,000 cells/well) were cultured in 0.5 ml of MEM Rega 3 medium supplemented with 10% fetal calf serum, 1% L-glutamine and 2% sodium carbonate. After 3 days, cells were washed with 0.5 ml of phosphate-buffered saline and overlayed with 1 ml of serum- and glucose-free DMEM medium. Then, 2 μl of compound in DMSO and 50 μl substrate (3 mM glucose and 0.5 μCi ^14C-D-glucose were added and the cultures were incubated for 90 min. Cells were then extracted with 0.5 ml of 20% KOH for 60 min at 37° C. and the cell lysates were transferred to 10 ml tubes containing 300 μl of 1 mg/ml glycogen as […]. Following the addition of 2 ml ethanol, total glycogen was precipitated overnight at −20° C. and the precipitates were recovered by centrifugation. Precipitates were then resuspended in 1 ml of water and transferred to scintillation counter vials. and the amount of ^14C-D-glucose incorporation into glycogen was measured by scintillation counting. Scores for the compounds according to the invention, were obtained at a test concentration of 10^−6 M. Score 1=10-30% increase, Score 2=30-60% increase, Score 3=60-80% increase and Score 4=>80% increase in D-glucose incorporation.

For assay [3], the target named is GSK-3β (Homo sapiens, UniProt P49841). The assay can be described thus: GSK-3 kinase assay (C1), GSK-3β. Format: biochemical. The settings on record: 1 μM ATP, read-out: C1 Score β. In short, it runs like this: as §1
Assay [4] addresses CDK3/cyclinE (h) (Homo sapiens, UniProt Q00526). Description: Kinase profiling C3.5 CDK3/cyclinE human. The assay is classed as biochemical. Conditions: test concentration of 10^−6 M. The procedure: (§2) The in vitro inhibition of a panel of kinases was assessed using either the glass-fiber filter technology as described by Davies, S. P. et al., Biochem J. (2000), 351; p. 95-105. In the glass-fiber filter technology the activity of the kinase of interest is measured using an appropriate substrate that is incubated with the aforementioned kinase protein in the presence of (^33P) radiolabeled ATP. (^33P) Phosporylation of the substrate is subsequently measured as radioactivity bound on a glassfiber-filter.
(§3) All kinases are pre-diluted to a 10× working concentration prior to addition into the assay. The composition of the dilution buffer for each kinase is detailed below.
(§4) All substrates are dissolved and diluted to working stocks in de-ionised water, apart from histone H1 that is stored in 10× working stock in 20 mM MOPS pH 7.4.
(§5) In a final reaction volume of 25 μl, CDK3/cyclinE (h) (5-10 mU) is incubated with 8 mM MOPS pH 7.0, 0.2 mM EDTA, 0.1 mg/ml histone H1, 10 mM MgAcetate and [γ-^33P-ATP] (specific activity approx. 500 cpm/pmol, concentration as required). The reaction is initiated by the addition of the MgATP mix. After incubation for 40 minutes at room temperature, the reaction is stopped by the addition of 5 μl of a 3% phosphoric acid solution. 10 μl of the reaction is then spotted onto a P30 filtermat and washed three times for 5 minutes in 75 mM phosphoric acid and once in methanol prior to drying and scintillation counting.

Assay [5] addresses CDK5/p35 human (Homo sapiens, UniProt Q00535). The assay can be described thus: Kinase profiling C3.6 CDK5/p35 human. The settings on record: CDK5/p35, test concentration of 10^−6 M. The assay is classed as biochemical. On the procedure: as §2, §3, §4
as §5, with “CDK5/p35 human” for “CDK3/cyclinE (h)”

For assay [6], the target named is CDK1/cyclinB (h) (Homo sapiens, UniProt P06493). Description: Kinase profiling C3.2 CDK1/cyclinB human. Format: biochemical. The settings on record: test concentration of 10^−6 M. The procedure: as §2, §3, §4
as §5, with “CDK1/cyclinB” for “CDK3/cyclinE”

Assay [7] deals with CDK2/cyclinA (h) (Homo sapiens, UniProt P24941). Description: Kinase profiling C3.3 CDK2/cyclinA human. The assay is classed as biochemical. The settings on record: test concentration of 10^−6 M. The procedure: as §2, §3, §4
as §5, with “CDK2/cyclinA” for “CDK3/cyclinE”

The target in assay [8] is CDK2/cyclinE (h) (Homo sapiens, UniProt P24941). The assay can be described thus: Kinase profiling C3.4 CDK2/cyclinE human. Format: biochemical. Conditions: test concentration of 10^−6 M. On the procedure: as §2, §3, §4
as §5, with “CDK2/cyclinE” for “CDK3/cyclinE”

For assay [9], the target named is CDK7/cyclinH/MAT1 (h) (Homo sapiens, UniProt P50613). Description: Kinase profiling C3.8 CDK7/cyclinH/MAT1 human. The settings on record: CDK7/cyclinH/MAT1, test concentration of 10^−6 M. Format: biochemical. The procedure: as §2, §3, §4
as §5, with “CDK7/cyclinH/MAT1” for “CDK3/cyclinE”, “500 μM peptide,” for “0.1 mg/ml histone H1,”

The target in assay [10] is CDK6/cyclinD3 human (Homo sapiens, UniProt Q00534). The assay can be described thus: Kinase profiling C3.7 CDK6/cyclinD3 human. Format: biochemical. The settings on record: CDK6/cyclinD3, test concentration of 10^−6 M. The procedure: as §2, §3, §4
as §5, with “CDK6/cyclinD3 human” for “CDK3/cyclinE (h)”

Chain of CDK6/cyclinD3 human (Q00534 whole entry): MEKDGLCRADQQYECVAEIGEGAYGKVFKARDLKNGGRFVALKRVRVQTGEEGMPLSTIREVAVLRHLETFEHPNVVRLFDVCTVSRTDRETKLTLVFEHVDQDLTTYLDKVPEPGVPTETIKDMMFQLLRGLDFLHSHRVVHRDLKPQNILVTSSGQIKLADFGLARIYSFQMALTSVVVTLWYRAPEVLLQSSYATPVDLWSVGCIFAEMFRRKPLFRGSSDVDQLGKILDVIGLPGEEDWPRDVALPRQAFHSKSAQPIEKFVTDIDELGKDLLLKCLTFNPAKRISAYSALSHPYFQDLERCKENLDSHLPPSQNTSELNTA
Chain of CDK6/cyclinD3 human (P30281 whole entry partner): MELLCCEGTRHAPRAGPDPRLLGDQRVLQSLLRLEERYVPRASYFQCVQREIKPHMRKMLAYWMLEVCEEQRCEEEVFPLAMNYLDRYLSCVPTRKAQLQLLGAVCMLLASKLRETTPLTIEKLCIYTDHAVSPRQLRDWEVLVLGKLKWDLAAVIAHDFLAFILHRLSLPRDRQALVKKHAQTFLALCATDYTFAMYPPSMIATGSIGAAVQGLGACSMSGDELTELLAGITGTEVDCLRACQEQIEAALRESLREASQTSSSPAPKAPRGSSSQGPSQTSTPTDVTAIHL
Chain of GSK-3β (P49841 whole entry, species assumed): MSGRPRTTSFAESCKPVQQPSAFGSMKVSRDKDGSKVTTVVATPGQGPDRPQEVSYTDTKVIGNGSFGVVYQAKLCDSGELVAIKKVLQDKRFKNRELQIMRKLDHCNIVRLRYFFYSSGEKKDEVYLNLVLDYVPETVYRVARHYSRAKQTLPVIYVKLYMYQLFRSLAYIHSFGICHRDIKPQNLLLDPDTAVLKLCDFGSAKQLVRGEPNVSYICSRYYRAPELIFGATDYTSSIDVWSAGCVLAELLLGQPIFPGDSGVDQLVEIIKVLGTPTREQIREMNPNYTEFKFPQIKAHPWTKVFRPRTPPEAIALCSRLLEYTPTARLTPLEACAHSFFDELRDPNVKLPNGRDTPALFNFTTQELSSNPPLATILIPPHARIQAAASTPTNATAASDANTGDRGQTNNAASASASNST
Chain of GSK-3α (P49840 whole entry, species assumed): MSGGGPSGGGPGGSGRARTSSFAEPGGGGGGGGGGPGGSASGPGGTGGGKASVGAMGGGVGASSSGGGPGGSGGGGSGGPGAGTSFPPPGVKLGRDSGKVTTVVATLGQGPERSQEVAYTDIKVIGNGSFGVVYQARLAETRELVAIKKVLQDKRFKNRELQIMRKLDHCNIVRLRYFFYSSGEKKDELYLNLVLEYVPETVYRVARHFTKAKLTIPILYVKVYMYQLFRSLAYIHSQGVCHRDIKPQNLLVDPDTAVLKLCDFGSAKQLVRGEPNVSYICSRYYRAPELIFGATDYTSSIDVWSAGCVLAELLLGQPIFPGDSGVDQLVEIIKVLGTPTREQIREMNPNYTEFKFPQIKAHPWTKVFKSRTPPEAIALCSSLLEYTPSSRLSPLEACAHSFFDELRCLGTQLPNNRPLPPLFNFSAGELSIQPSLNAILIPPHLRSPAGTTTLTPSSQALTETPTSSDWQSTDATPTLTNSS
Chain of CDK1/cyclinB (h) (P06493 whole entry): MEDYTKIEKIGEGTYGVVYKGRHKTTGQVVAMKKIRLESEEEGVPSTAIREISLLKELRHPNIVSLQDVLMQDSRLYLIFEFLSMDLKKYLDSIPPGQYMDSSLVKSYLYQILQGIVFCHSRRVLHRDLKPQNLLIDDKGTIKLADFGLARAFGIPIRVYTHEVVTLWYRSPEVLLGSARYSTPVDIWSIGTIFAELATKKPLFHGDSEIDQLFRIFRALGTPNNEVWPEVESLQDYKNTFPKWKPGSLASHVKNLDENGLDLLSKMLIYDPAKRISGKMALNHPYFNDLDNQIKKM
Chain of CDK1/cyclinB (h) (P14635 whole entry partner): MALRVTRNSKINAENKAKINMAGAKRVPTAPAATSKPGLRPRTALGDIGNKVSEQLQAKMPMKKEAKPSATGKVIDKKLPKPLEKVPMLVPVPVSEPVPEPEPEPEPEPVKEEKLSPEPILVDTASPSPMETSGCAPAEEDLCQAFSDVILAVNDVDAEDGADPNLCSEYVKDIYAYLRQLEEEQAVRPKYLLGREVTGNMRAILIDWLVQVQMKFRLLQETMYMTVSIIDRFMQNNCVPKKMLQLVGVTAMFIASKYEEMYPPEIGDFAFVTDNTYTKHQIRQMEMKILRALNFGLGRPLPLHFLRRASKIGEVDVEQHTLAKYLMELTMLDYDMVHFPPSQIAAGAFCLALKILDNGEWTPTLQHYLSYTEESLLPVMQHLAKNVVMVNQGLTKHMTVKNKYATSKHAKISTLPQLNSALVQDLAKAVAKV
Chain of CDK7/cyclinH/MAT1 (h) (P50613 whole entry): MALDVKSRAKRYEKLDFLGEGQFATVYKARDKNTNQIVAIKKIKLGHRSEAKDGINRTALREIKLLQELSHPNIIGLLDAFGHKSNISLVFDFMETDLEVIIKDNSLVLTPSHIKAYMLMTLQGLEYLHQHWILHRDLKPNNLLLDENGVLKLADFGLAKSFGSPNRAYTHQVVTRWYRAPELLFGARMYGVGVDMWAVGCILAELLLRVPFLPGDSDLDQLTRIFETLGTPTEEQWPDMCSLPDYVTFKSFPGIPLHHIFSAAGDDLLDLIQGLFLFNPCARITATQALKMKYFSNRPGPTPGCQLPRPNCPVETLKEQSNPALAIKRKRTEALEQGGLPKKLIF
Chain of CDK7/cyclinH/MAT1 (h) (P51946 whole entry partner): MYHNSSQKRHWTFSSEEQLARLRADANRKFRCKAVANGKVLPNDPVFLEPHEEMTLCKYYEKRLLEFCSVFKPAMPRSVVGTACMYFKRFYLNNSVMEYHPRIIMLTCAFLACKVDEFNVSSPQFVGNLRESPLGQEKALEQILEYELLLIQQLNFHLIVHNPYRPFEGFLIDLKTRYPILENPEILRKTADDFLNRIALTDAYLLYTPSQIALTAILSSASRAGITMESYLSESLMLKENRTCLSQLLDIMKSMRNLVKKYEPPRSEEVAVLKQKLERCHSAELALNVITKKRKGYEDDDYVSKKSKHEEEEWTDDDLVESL
Chain of CDK7/cyclinH/MAT1 (h) (P51948 whole entry partner): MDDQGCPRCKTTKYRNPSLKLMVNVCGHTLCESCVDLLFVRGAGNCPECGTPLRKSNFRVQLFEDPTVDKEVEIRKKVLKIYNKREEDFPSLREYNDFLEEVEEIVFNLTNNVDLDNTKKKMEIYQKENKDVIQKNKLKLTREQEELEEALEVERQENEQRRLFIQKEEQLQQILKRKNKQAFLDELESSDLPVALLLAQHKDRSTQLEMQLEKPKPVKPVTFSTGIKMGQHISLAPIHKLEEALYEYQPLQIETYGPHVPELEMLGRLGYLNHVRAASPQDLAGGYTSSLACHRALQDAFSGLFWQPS
Chain of CDK5/p35 human (Q00535 whole entry): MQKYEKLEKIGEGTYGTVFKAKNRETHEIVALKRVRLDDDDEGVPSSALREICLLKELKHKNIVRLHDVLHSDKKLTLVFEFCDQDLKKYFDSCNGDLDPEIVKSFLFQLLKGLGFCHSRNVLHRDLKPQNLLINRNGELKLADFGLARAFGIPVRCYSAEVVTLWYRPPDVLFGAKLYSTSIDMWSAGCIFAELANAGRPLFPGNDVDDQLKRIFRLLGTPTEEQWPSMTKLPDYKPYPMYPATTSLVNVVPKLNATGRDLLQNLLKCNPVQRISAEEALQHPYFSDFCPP
Chain of CDK5/p35 human (Q15078 whole entry partner): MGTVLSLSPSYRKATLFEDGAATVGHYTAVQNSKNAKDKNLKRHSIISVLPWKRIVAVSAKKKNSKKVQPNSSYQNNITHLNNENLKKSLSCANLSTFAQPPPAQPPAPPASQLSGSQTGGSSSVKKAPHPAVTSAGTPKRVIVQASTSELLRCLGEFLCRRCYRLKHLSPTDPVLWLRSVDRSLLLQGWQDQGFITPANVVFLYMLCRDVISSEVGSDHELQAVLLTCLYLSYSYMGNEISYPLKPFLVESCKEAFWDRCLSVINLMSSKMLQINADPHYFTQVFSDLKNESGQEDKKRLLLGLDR

In the case of `CN1CC(=O)N(C)CCCc2cc(ccn2)-c2ncnc(n2)Nc2cccc(c2)C1` [Compound 67], the IC50 in assay [1] was < 0.01 µM. Moreover, the “C2 Score” value in assay [2] is listed as 4 (Score 4=>80% increase in D-glucose incorporation).
Turning to `CN1CC(=O)NCCCNc2cc(ccn2)-c2ncnc(n2)Nc2cccc(c2)C1` [Compound 5], the IC50 in [3] and in assay [1] was 0.01 to 0.1 µM in each case. The “C2 Score” value in assay [2] is 4 (Score 4=>80% increase in D-glucose incorporation).
Consider `O=C1CN2CCN(CC2)Cc2cccc(c2)Nc2ncnc(n2)-c2cncc(c2)CCCN1` [Compound 84], for which the IC50 in assay [1] is < 0.01 µM. In addition, the C3.5 score in assay [4] is reported as 2 (Score 2 = 30-60% inhibition). Moreover, in assay [5], the C3.6 score is given as 2 (Score 2 = 30-60% inhibition). Also, in assay [6], the C3.2 score is reported as 3 (Score 3 = 60-80% inhibition). In assay [7], the C3.3 score was 2 (Score 2 = 30-60% inhibition). Moreover, the C3.4 score in assay [8] is reported as 3 (Score 3 = 60-80% inhibition). The C3.8 score in assay [9] is 1 (Score 1 = 10-30% inhibition). Moreover, in [2], the “C2 Score” value is 3 (Score 3=60-80% increase).
Take `CN1CCCc2cc(ccc2F)-c2ncnc(n2)Nc2cccc(c2)CNC(=O)C1` [Compound 70]: the IC50 in [1] was < 0.01 µM. Moreover, the “C2 Score” value in assay [2] is 4 (Score 4=>80% increase in D-glucose incorporation).
Take `O=C1CN2CCN(CC2)Cc2cccc(c2)Nc2ncnc(n2)-c2cccc(c2)CCCN1` [Compound 52]: the IC50 in assay [1] is < 0.01 µM. For the same compound, the C3.5 score in assay [4] is reported as 2 (Score 2 = 30-60% inhibition). The C3.6 score in [5] is recorded as 3 (Score 3 = 60-80% inhibition). Also, in assay [6], the C3.2 score is listed as 4 (Score 4 = >80% inhibition). Also, the C3.3 score in [7] was 4 (Score 4 = >80% inhibition). Further, in [8], the C3.4 score is given as 4 (Score 4 = >80% inhibition). Further, the C3.8 score in assay [9] was 1 (Score 1 = 10-30% inhibition). Further, the “C2 Score” value in assay [2] was 4 (Score 4=>80% increase in D-glucose incorporation).
For the compound `CN1CCC(=O)NCCCc2cc(ccn2)-c2ncnc(n2)Nc2cc(Cl)cc(c2)C1` [Compound 32], the IC50 in [3] and in assay [1] was 0.01 to 0.1 µM each time. In assay [4], the C3.5 score is reported as 3 (Score 3 = 60-80% inhibition). The C3.6 score in [5] is reported as 4 (Score 4 = >80% inhibition). In assay [6], the C3.2 score is on record as 4 (Score 4 = >80% inhibition). The C3.3 score in [7] is 4 (Score 4 = >80% inhibition). Besides, in assay [8], the C3.4 score is reported as 4 (Score 4 = >80% inhibition). For the same compound, the C3.8 score in assay [9] was 2 (Score 2 = 30-60% inhibition). The C3.7 score in assay [10] was 1 (Score 1 = 10-30% inhibition).
`CC(C)N1CC(=O)NCCCc2cc(ccn2)-c2ncnc(n2)Nc2cccc(c2)C1` [Compound 65]: the IC50 in assay [1] is < 0.01 µM. Further, the C3.3 score in assay [7] was 2 (Score 2 = 30-60% inhibition). In addition, the “C2 Score” value in assay [2] is given as 3 (Score 3=60-80% increase).
In the case of `O=C1CC2CCN(CCCc3cc(ccn3)-c3ncnc(n3)Nc3cccc(c3)CCN1)CC2` [Compound 27], the IC50 in assay [3] and in assay [1] was 0.1 to 1 µM throughout. In addition, the C3.5 score in assay [4] was 1 (Score 1 = 10-30% inhibition). Besides, the C3.6 score in [5] is given as 2 (Score 2 = 30-60% inhibition). In addition, the C3.2 score in assay [6] is 2 (Score 2 = 30-60% inhibition). For the same compound, the C3.3 score in assay [7] is listed as 3 (Score 3 = 60-80% inhibition). In addition, the C3.4 score in assay [8] is reported as 2 (Score 2 = 30-60% inhibition). The C3.8 score in assay [9] is recorded as 1 (Score 1 = 10-30% inhibition). For the same compound, the C3.7 score in assay [10] is 1 (Score 1 = 10-30% inhibition).
`CN1CC(=O)NCCNc2cc(ccn2)-c2ncnc(n2)Nc2cccc(c2)C1` [Compound 4]: the IC50 in assay [3] and in assay [1] was 0.01 to 0.1 µM in each case. The “C2 Score” value in [2] was 4 (Score 4=>80% increase in D-glucose incorporation).
`CN1CC(=O)NCCCc2cc(ccn2)-c2ncnc(n2)Nc2cc(Cl)ccc2C1` [Compound 31]: the IC50 in assay [3] and in assay [1] was > 1 µM each time. For the same compound, in assay [4], the C3.5 score is on record as 4 (Score 4 = >80% inhibition). For the same compound, the C3.6 score in assay [5] is reported as 4 (Score 4 = >80% inhibition). For the same compound, the C3.2 score in [6] is listed as 3 (Score 3 = 60-80% inhibition). Also, the C3.3 score in [7] was 2 (Score 2 = 30-60% inhibition). In addition, the C3.4 score in [8] is 3 (Score 3 = 60-80% inhibition). Further, the C3.8 score in assay [9] is listed as 1 (Score 1 = 10-30% inhibition). For the same compound, the C3.7 score in assay [10] is recorded as 1 (Score 1 = 10-30% inhibition).
